Experimental data from patent US20210337847A1, “Mint Flavor Compositions” (The Procter & Gamble Company, priority 2020, published 2021).
Values belong to the compound of their own block, whether it stands above or below them.

Legend:
[1] = Comparison of cooling attributes of (−)-menthol and racemic menthol in a toothpaste (CREST Cavity formulation); format: in vivo; conditions: for Potency compared to L-Menthol / Time Point at Maximum Cooling / Maximum Cooling (0-60 scale) / Maximum Longevity: CREST Cavity formulation; for Maximum Cooling (0-60 scale): 60 = greatest amount of cooling, 0 = least; for Maximum Longevity: longevity of cooling; for EC 50: concentration of coolant giving 50% of its maximal cooling
Source text: The following data helps support the use of racemic menthol to reduce costs of mint flavor compositions herein described. From internal unpublished research, Table B compares replacing (−)-menthol with a racemic menthol in a 1:1 in a toothpaste formulation. Such a direct replacement is not preferred given the reduced cooling profile and olfactory differences; however, a portion of L-menthol is preferably replaced by racemic-menthol to gain cost efficiency while minimizing impact to the overall mint flavor profiles.
Table B is a comparison of attributes between (-)-menthol and racemic menthol in a toothpaste context (using CREST Cavity formulation).
This value represents the concentration of a coolant where 50% of its maximal cooling is observed.

[2] = Expert sensory testing of racemic menthol versus (−)-menthol in a toothpaste formulation (CREST Cavity) with a standard spearmint flavor; format: in vivo
Description: In separate, unpublished internal experiments, perceptual experiences of racemic menthol are quantified via expert sensory testing. The use of a standard spearmint flavor (minimizing extra menthol contribution) compared racemic menthol to (−)-menthol in a toothpaste formulation (CREST Cavity). There are several sensory observations taken from these experiments. […] These aromatic notes appear during brushing and disappear after 5-10 minutes post expectoration and are more pronounced as concentrations increase.

EC 50 [1]: 1,750 to 2,250 parts per million
SMILES: CC1CCC(C(C)C)C(O)C1 (single isomer, unassigned; (-)) [(−)-Menthol, (−)-menthol]
Potency compared to L-Menthol [1]: 1x
Time Point at Maximum Cooling [1]: ~5 min
Maximum Cooling (0-60 scale) [1]: 40
Maximum Longevity [1]: Up to 25 minutes

EC 50 [1]: 1,250 to 1,500 parts per million
SMILES: CC1CCC(C(C)C)C(O)C1 (racemic) [Racemic Menthol, racemic menthol]
Potency compared to L-Menthol [1]: ~0.65-0.7x
Time Point at Maximum Cooling [1]: ~1 min
Maximum Cooling (0-60 scale) [1]: 35
Maximum Longevity [1]: Up to 20 minutes
Less potent than (−)-menthol for cooling [2]: 25-30%
